Laboratory results: EP0562480B1, “1-phenyl-5-substituted-1H-1, 2,4-triazole-3-carboxamide derivates, process for preparation of the same, and fungicidal composition comprising the same” (KUREHA CHEMICAL INDUSTRY CO., LTD., priority 1992, dated 1993)

Test system: Botrytis cinerea
Assay: Test for controlling effect against cucumber gray mold
Format: in vivo, Botrytis cinerea on cucumber
Conditions: 500 ppm wettable powder spray, 5 ml per pot; cucumber first leaf stage; lesion areas three days after inoculation

Row | SMILES | Inhibition rate (%) at concentration of 500 ppm Cucumber gray mold [%]
1 | CCCCOC(c1cccc(-n2nc(C(N)=O)nc2C2CCCCC2)c1)C(C)C (centres unmarked) [Compound 5, 1-[3-[(1-butoxy-2-methyl)propyl]phenyl]-5-cyclohexyl-1H-1,2,4-triazole-3-carboxamide] | 82
2 | CCCCOC(c1cccc(-n2nc(C(N)=O)nc2Cc2ccccc2)c1)C(C)C (centres unmarked) [Compound 6, 1-[3-[(1-butoxy-2-methyl)propyl]phenyl]-5-(phenylmethyl)-1H-1,2,4-triazole-3-carboxamide] | 80
